The values that follow come from patent US6228373A, “Peptides with immunomodulatory effects” (priority 1995, dated 2001).

Test [1] deals with rat spontaneously developed mammary carcinoma cells. The test can be described thus: Effects of peptides on tumour growth. The test is classed as in vivo. The following applies: Wistar rats, subcutaneous mammary carcinoma, gavage once a day, all dose levels tested. Here is the method:
10^4 rat spontaneously developed mammary carcinoma cells in isotonic saline and 5% normal syngeneic rat serum were inoculated subcutaneously in the right hindlegs of Wistar rats (8 per group). Tumour size was estimated by palpation and caliper measurements of a first diameter (a), being the largest diameter, and the one (b) perpendicular to the first. The volume of the tumour was calculated using the formula: V=0.4 ab^2.
Tumour volume is given in mm^3 as a median for each group of rats (8 per group).
Drug and control (isotonic saline) were administered by gavage (oesophagealtube) once a day (a.m.) on each of days 4-8 and 11-15 for peptides
i) Gly-Pro-Cys-Cys-Pro-Gly (SEQ ID NO:20; 3 μmol/kg/day); ii) Ala-Pro-Cys-Cys-Val-Pro (SEQ ID NO:21; 0.03 and […]);

Test [2] deals with mice (DTH test as per Example 43). Briefly: DTH test, comparison of different routes of administration. It counts as in vivo. The method, then: The mice were sensitized, Day 0, by epicutaneous application of 150 μl of an absolute ethanol-acetone (3:1) solution containing 3% OXA on the shaved abdomen. Treatment with peptides 1 to 41 inclusive, or vehicle (phosphate buffer, pH 7.4, containing a mixture of Buffer A and Buffer B in the proportion 63%:37% B (Buffer A: Na2 HPO4, 0.89 g/100 ml, EDTA 0.05 g/100 ml; Buffer B: NaH2 PO4, 0.69 g/100 ml, EDTA 0.05 g/100 ml) was initiated by oral feeding immediately after sensitization and continued once daily (a.m) until Day 6. Seven days after sensitization, both ears of all mice were challenged on both sides by topical application of 20 μl 1% OXA dissolved in peanut oil. Ear thickness was measured prior to and at 24 hours or 48 hours after challenge using an Oditest spring calliper. Challenges and measurements were performed under light pentobarbital anaesthesia.
The intensity of the DTH reactions was measured according to the method described by van Loveren H., et al. (1984) J. Immunol. Methods 67: 311 and expressed according to the formula: Tt24/48 -Tt0 μm units, where t0, t24 and t48 represent the ear thickness at time 0, +24 hrs or +48 hrs after challenge respectively, in individual tests (T). The results are expressed as the mean +/- S.E.M.. The level of significance between means of the groups is obtained by Student's two-tailed t-test. […]
Peptide (Peptide No. 4-derived from SEQ ID NO:24) was administered to mice (groups of 10) orally and by parenteral injection (intravenous and subcutaneous injection) at doses of from 0.0003 μmol/kg body weight through to 3.0 μmol/kg body weight as per example 43. […] The mean and standard error of the mean for each group of mice (10 per group) was recorded.
Peptide (SEQ ID NO:24, dimerized as shown in Box 36 of Table 1) was administered to mice (groups of 10) at doses of 0.03 μmol/kg body weight and 3.0 μmol/kg body weight. […] The mean and standard error of the mean for each group of mice (10 per group) was calculated.

[3] abbreviates: 0.03 and 3.0 μmol/kg body weight.

Positions of bridges follow the written chain, without caps; N, C: chain ends. Residues, ends and D or L forms follow the SMILES beside them. Chains are numbered I, II in the order given.

Take `NCC(=O)N1CCC[C@H]1C(=O)N[C@@H](CS)C(=O)N[C@@H](CS)C(=O)N1CCC[C@H]1C(=O)NCC(=O)O` [Peptide 1, Gly-Pro-Cys-Cys-Pro-Gly] (H-GPCCPG-OH): in test [1], the “tumour volume compared with the control” value is listed as “marked decrease in tumour volume”.
Turning to `O=C(CNC(=O)[C@@H]1CCCN1)N[C@H]1CSSC[C@@H](C(=O)NCC(=O)N2CCC[C@H]2C(=O)O)NC1=O` [Peptide 4] (H-PGCCGP-OH; disulfide 3-4), the “immunomodulatory response, oral administration versus other parenteral means” value in test [2] (0.0003 to 3.0 μmol/kg body weight, oral vs intravenous and subcutaneous injection) is on record as “more marked immunomodulatory response”.
On to `O=C(CNC(=O)[C@@H]1CCCN1)N[C@H]1CSSC[C@H](NC(=O)CNC(=O)[C@@H]2CCCN2)C(=O)N[C@H](C(=O)NCC(=O)N2CCC[C@H]2C(=O)O)CSSC[C@@H](C(=O)NCC(=O)N2CCC[C@H]2C(=O)O)NC1=O` [Peptide 36] (I: H-PGCCGP-OH / II: H-PGCCGP-OH; disulfide I:3-II:3, I:4-II:4), for which, in test [2] (setting [3]), the “immunomodulatory effect in the DTH test relative to the control” value was “significant immunomodulatory effect” and the “reaction by oral route relative to parenteral routes at the same dosage” value was “stronger reaction”.
Take `CC[C@H](C)[C@H](NC(=O)[C@@H](N)C(C)C)C(=O)N[C@H]1CSSC[C@@H](C(=O)N[C@@H](CC(C)C)C(=O)N[C@H](C(=O)O)[C@@H](C)O)NC1=O` [SEQ ID NO:26] (H-VICCLT-OH; disulfide 3-4): the “tumour volume compared with the control” value in test [1] is “marked decrease in tumour volume”.
